Data published in patent US20250361230A1, “LATS Inhibitors and Uses Thereof” (The USA, as Represented by the Secretary, Dept. of Heath …, priority 2022, published 2025).

Assays:
Format in all cases: biochemical
LATS1 = target: T1, LATS1 (Homo sapiens, UniProt O95835); assay: RBC HotSpot kinase assay (33P-ATP, P81 filter-binding), LATS1; conditions: Table 28, biochemical kinase assay; read-out: LATS1 IC50
T1 sequence (O95835 1-1130): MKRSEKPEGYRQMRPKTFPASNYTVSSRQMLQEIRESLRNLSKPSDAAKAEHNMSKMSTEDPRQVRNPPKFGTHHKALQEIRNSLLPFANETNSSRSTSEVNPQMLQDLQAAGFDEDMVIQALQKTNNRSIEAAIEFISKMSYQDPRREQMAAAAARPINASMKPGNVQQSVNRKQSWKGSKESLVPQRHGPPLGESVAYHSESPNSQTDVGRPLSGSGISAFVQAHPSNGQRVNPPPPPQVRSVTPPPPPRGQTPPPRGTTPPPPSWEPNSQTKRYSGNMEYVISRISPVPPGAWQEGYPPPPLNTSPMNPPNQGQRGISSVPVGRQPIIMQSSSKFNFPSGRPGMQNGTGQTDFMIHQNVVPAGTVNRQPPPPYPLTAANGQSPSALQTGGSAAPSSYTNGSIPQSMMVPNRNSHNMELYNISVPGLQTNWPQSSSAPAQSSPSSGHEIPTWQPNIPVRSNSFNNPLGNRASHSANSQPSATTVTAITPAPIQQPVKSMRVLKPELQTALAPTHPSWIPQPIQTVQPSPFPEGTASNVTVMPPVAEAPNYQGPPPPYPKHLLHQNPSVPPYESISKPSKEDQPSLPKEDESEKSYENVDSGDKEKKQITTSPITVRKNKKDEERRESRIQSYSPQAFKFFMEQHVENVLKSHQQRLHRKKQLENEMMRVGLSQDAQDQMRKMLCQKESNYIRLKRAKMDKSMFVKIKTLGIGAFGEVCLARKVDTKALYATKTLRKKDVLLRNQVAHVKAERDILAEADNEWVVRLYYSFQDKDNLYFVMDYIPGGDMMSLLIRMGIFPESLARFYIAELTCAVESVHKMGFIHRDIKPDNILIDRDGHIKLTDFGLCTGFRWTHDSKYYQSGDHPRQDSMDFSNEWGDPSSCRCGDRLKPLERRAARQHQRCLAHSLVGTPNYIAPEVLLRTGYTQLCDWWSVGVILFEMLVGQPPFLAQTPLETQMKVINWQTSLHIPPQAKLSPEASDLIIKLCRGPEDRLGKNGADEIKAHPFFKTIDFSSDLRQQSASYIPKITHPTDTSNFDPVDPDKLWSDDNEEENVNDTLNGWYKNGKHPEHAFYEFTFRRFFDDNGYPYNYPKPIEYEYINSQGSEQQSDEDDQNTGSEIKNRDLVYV
Outline: (§1)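 Kinase in Hepes pH 7.5 buffer with Mg2+, EGTA, Brij35, BSA, vanadate, DTT and 1% DMSO, plus required cofactors and substrate, was preincubated 20 min at room temperature with compound. Reaction was started with 33P-ATP and run 2 h, then detected by P81 filter binding. IC50 (nM) came from 10-point singlet curves.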

LATS2 = target: T2, LATS2 (Homo sapiens, UniProt Q9NRM7); assay: RBC HotSpot kinase assay (33P-ATP, P81 filter-binding), LATS2; conditions: Table 28, biochemical kinase assay; read-out: LATS2 IC50
T2 sequence (Q9NRM7 1-1088): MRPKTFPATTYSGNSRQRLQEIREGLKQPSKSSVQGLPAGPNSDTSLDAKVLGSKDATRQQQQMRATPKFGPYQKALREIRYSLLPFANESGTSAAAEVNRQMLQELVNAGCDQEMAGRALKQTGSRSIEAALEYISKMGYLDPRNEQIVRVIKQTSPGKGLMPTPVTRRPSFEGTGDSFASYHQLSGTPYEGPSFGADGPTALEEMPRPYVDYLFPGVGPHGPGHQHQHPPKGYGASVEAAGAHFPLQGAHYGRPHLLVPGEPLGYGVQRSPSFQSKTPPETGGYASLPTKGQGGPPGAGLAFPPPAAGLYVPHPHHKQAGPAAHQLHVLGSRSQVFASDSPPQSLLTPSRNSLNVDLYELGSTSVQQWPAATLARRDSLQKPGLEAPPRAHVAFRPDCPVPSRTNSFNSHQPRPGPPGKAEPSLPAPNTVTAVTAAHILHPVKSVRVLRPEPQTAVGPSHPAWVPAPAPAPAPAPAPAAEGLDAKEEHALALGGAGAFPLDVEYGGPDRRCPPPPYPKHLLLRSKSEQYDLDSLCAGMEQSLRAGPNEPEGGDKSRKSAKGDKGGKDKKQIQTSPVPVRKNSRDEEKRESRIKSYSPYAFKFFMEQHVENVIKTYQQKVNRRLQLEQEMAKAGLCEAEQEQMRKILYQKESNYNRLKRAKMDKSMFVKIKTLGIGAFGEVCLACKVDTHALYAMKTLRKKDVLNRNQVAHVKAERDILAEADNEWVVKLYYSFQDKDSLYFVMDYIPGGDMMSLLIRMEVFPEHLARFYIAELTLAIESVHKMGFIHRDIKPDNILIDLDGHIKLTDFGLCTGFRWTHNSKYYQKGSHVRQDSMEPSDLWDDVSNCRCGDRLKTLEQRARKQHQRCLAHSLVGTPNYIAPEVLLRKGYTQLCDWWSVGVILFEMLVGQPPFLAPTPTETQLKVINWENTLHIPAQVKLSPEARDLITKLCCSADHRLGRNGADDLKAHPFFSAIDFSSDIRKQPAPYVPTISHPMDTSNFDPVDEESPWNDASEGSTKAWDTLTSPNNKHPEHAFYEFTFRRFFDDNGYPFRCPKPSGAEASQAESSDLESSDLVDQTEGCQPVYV
Outline: as §1

AKT = AKT (Homo sapiens, UniProt P31749); assay: RBC HotSpot kinase assay (33P-ATP, P81 filter-binding), AKT; conditions: Table 28, biochemical kinase assay; read-out: AKT IC50
Outline: as §1

Chain of AKT (P31749 whole entry): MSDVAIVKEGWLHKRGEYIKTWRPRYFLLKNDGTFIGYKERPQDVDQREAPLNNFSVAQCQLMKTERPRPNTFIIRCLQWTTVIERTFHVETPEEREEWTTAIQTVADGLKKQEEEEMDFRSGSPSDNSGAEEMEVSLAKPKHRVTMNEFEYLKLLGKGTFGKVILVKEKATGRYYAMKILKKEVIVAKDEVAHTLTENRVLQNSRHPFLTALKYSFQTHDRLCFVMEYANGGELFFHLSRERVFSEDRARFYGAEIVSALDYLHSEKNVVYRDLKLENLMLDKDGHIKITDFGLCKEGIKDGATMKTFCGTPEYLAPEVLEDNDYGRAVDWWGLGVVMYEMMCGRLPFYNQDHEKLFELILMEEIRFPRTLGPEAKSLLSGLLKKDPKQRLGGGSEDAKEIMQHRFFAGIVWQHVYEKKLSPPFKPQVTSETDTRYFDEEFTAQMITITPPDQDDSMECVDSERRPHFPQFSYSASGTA

Structure (SMILES)	IC50 (LATS1)	IC50 (LATS2)	IC50 (AKT)
Cc1cc(-c2ccnc3[nH]cc(F)c23)ccc1CN [Compound 211, (4-(3-fluoro-1H-pyrrolo[2,3-b]pyridin-4-yl)-2-methylphenyl) methanamine]	3.7 nM	5.5 nM	312 nM
NCc1ccc(-c2ccnc3[nH]cc(-c4ccccc4)c23)cc1-c1ccccc1 [Compound 219, (5-(3-phenyl-1H-pyrrolo[2,3-b]pyridin-4-yl)-[1,1′-biphenyl]-2-yl)methanamine]	39 nM	128 nM	394 nM
COC(=O)c1c[nH]c2nccc(-c3ccc(CN)cc3)c12 [Compound 223, methyl 4-(4-(aminomethyl)phenyl)-1H-pyrrolo[2,3-b]pyridine-3-carboxylate]	27.4 nM	1420 nM	13 nM
Cc1cccc(-c2c[nH]c3nccc(-c4ccc(CN)cc4)c23)c1 [Compound 230, (4-(3-(m-tolyl)-1H-pyrrolo[2,3-b]pyridin-4-yl)phenyl) methanamine]	17 nM	16 nM	1200 nM
CC(C)(N)c1ccc(-c2ccnc3[nH]cc(F)c23)cc1 [Compound 238, 2-(4-(3-fluoro-1H-pyrrolo[2,3-b]pyridin-4-yl)phenyl)propan-2-amine]	1.1 nM	1.2 nM	229 nM
NCc1ccc(-c2ccnc3[nH]cc(-c4cccnc4)c23)cc1 [Compound 245, (4-(3-(pyridin-3-yl)-1H-pyrrolo[2,3-b]pyridin-4-yl)phenyl) methanamine]	12 nM	24 nM	751 nM
NCc1ccc(-c2ccnc3[nH]cc(-c4ccccc4)c23)cc1 [Compound 253, (4-(3-phenyl-1H-pyrrolo[2,3-b]pyridin-4-yl)phenyl) methanamine]	13 nM	5 nM	983 nM
Cc1cc(-c2ccnc3[nH]cc(Cl)c23)ccc1CN [Compound 254, (4-(3-chloro-1H-pyrrolo[2,3-b]pyridin-4-yl)-2-methylphenyl) methanamine]	3.4 nM	5.2 nM	116 nM
Cc1cc(-c2ccnc3[nH]ccc23)ccc1CN [Compound 266, (2-methyl-4-(1H-pyrrolo[2,3-b]pyridin-4-yl)phenyl) methanamine]	6 nM	5 nM	249 nM
c1cc(-c2ccc3c(c2)CCNC3)c2cc[nH]c2n1 [Compound 267, 6-(1H-pyrrolo[2,3-b]pyridin-4-yl)-1,2,3,4-tetrahydroiso-quinoline]	11 nM	10 nM	308 nM
c1cc(-c2ccc(C3CCCCN3)cc2)c2cc[nH]c2n1 (stereo not drawn) [Compound 271, 4-(4-(piperidin-2-yl)phenyl)-1H-pyrrolo[2,3-b]pyridine]	20 nM	25 nM	428 nM
NCc1ccc(-c2ccnc3[nH]cc(F)c23)cc1 [Compound 275, (4-(3-fluoro-1H-pyrrolo[2,3-b]pyridin-4-yl)phenyl) methanamine]	13 nM	8.4 nM	266 nM
NCc1ccc(-c2ccnc3[nH]cc(Cl)c23)cc1 [Compound 276, (4-(3-chloro-1H-pyrrolo[2,3-b]pyridin-4-yl)phenyl) methanamine]	12 nM	5.8 nM	167 nM
NCc1ccc(-c2ccnc3[nH]ccc23)cc1C(F)(F)F [Compound 284, (4-(1H-pyrrolo[2,3-b]pyridin-4-yl)-2-(trifluoromethyl)phenyl) methanamine]	10 nM	45 nM	1150 nM
NCc1ccc(-c2ccnc3[nH]ccc23)cc1 [Compound 287, (4-(1H-pyrrolo[2,3-b]pyridin-4-yl)phenyl) methanamine]	23 nM	34 nM	1030 nM
Cc1cc(-c2ccnc3[nH]cc(F)c23)cc(F)c1[C@@]1(O)[C@H](C)CN(C)C[C@@H]1C [Compound 304, (3S,4s,5R)-4-(2-fluoro-4-(3-fluoro-1H-pyrrolo[2,3-b]pyridin-4-yl)-6-methylphenyl)-1,3,5-trimethylpiperidin-4-ol]	5.1 nM	4 nM	271 nM
Cc1cc(-c2ccnc3[nH]cc(F)c23)cc(F)c1[C@@]1(O)[C@H](C)CN(C(C)C)C[C@@H]1C [Compound 305, (3S,4s,5R)-4-(2-fluoro-4-(3-fluoro-1H-pyrrolo[2,3-b]pyridin-4-yl)-6-methylphenyl)-1-isopropyl-3,5-dimethylpiperidin-4-ol]	4.1 nM	3.7 nM	758 nM
COC(=O)c1c[nH]c2nccc(-c3cc(C)c([C@@]4(O)[C@H](C)CN(C5CCS(=O)(=O)CC5)C[C@@H]4C)c(F)c3)c12 [Compound 309, methyl 4-(4-((3S,4s,5R)-1-(1,1-dioxidotetrahydro-2H-thiopyran-4-yl)-4-hydroxy-3,5-dimethylpiperidin-4-yl)-3-fluoro-5-methylphenyl)-1H-pyrrolo[2,3-b]pyridine-3-carboxylate]	3.1 nM	3 nM	2270 nM
COC(=O)c1c[nH]c2nccc(-c3cc(C)c([C@@]4(O)[C@H](C)CN(C(=O)CN)C[C@@H]4C)c(F)c3)c12 [Compound 310, methyl 4-(3-fluoro-4-((3S,4s,5R)-1-glycyl-4-hydroxy-3,5-dimethylpiperidin-4-yl)-5-methylphenyl)-1H-pyrrolo[2,3-b]pyridine-3-carboxylate]	5.1 nM	2.3 nM	4420 nM
Cc1cc(-c2ccnc3[nH]cc(F)c23)cc(F)c1[C@@]1(O)[C@H](C)CN(C(=O)[C@H](N)CO)C[C@@H]1C [Compound 312, (R)-2-amino-1-((3S,4R,5R)-4-(2-fluoro-4-(3-fluoro-1H-pyrrolo[2,3-b]pyridin-4-yl)-6-methylphenyl)-4-hydroxy-3,5-dimethylpiperidin-1-yl)-3-hydroxypropan-1-one]	8.1 nM	3.5 nM	153 nM
Cc1cc(-c2ccnc3[nH]cc(F)c23)cc(F)c1[C@@]1(O)[C@H](C)CN(C(=O)[C@@H](CO)N(C)C)C[C@@H]1C [Compound 313, (R)-2-(dimethylamino)-1-((3S,4S,5R)-4-(2-fluoro-4-(3-fluoro-1H-pyrrolo[2,3-b]pyridin-4-yl)-6-methylphenyl)-4-hydroxy-3,5-dimethylpiperidin-1-yl)-3-hydroxypropan-1-one]	4.4 nM	1.6 nM	312 nM
